According to the supplement of paper PMC10733146:

How the values were obtained:
Assay in all cases: viability relative to DMSO control (fraction); higher = less drug effect (more viable cells)
Conditions in all cases: 48 h
[1] = system: primary ALL patient cells (S088)
Outline: (§1)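 The cells were primary mononuclear tumour cells, either fresh or cryopreserved, isolated by Ficoll from blood or bone marrow or derived from processed lymph node. Each well of a 384-well plate received 4 × 10^4 cells onto compounds pre-plated at five concentrations, with one well per concentration. The medium was RPMI-1640 with penicillin/streptomycin, L-glutamine and human serum, and plates stood at 37 °C and 5% CO2 for 48 h. Viability is reported as CellTiter-Glo luminescence relative to the median of 16 inner DMSO wells.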

[2] = system: primary AML patient cells (S006)
Outline: as §1

[3] = system: primary AML patient cells (S009)
Outline: as §1

[4] = system: primary AML patient cells (S012)
Outline: as §1

[5] = system: primary AML patient cells (S017)
Outline: as §1

[6] = system: primary AML patient cells (S056)
Outline: as §1

[7] = system: primary AML patient cells (S060)
Outline: as §1

[8] = system: primary AML patient cells (S071)
Outline: as §1

[9] = system: primary AML patient cells (S072)
Outline: as §1

[10] = system: primary AML patient cells (S079)
Outline: as §1

[11] = system: primary AML patient cells (S085)
Outline: as §1

[12] = system: primary B-PLL patient cells (S016)
Outline: as §1

[13] = system: primary BL patient cells (S005)
Outline: as §1

[14] = system: primary CLL patient cells (S031)
Outline: as §1

[15] = system: primary CLL patient cells (S043)
Outline: as §1

[16] = system: primary DLBCL patient cells (S082)
Outline: as §1

[17] = system: primary FL patient cells (S087)
Outline: as §1

[18] = system: primary MCL patient cells (S041)
Outline: as §1

[19] = system: primary MCL patient cells (S053)
Outline: as §1

[20] = system: primary MCL patient cells (S063)
Outline: as §1

Nc1nc(=S)c2[nH]cnc2[nH]1 [Thioguanin]
viability ([1]; 0.024 µM): 1.03 | viability ([1]; 0.12 µM): 1.08 | viability ([1]; 0.6 µM): 0.904 | viability ([1]; 3 µM): 0.565 | viability ([1]; 15 µM): 0.281 | viability ([2]; 0.024 µM): 1.07 | viability ([2]; 0.12 µM): 0.996 | viability ([2]; 0.6 µM): 0.57 | viability ([2]; 3 µM): 0.202 | viability ([2]; 15 µM): 0.0984 | viability ([3]; 0.024 µM): 1.14 | viability ([3]; 0.12 µM): 1.09 | viability ([3]; 0.6 µM): 1.07 | viability ([3]; 3 µM): 0.696 | viability ([3]; 15 µM): 0.489 | viability ([4]; 0.024 µM): 0.99 | viability ([4]; 0.12 µM): 1 | viability ([4]; 0.6 µM): 0.946 | viability ([4]; 3 µM): 0.751 | viability ([4]; 15 µM): 0.513 | viability ([5]; 0.024 µM): 0.97 | viability ([5]; 0.12 µM): 1.05 | viability ([5]; 0.6 µM): 0.785 | viability ([5]; 3 µM): 0.561 | viability ([5]; 15 µM): 0.38 | viability ([6]; 0.024 µM): 0.912 | viability ([6]; 0.12 µM): 0.897 | viability ([6]; 0.6 µM): 0.889 | viability ([6]; 3 µM): 0.339 | viability ([6]; 15 µM): 0.127 | viability ([7]; 0.024 µM): 1.03 | viability ([7]; 0.12 µM): 0.969 | viability ([7]; 0.6 µM): 0.697 | viability ([7]; 3 µM): 0.643 | viability ([7]; 15 µM): 0.424 | viability ([8]; 0.024 µM): 1.02 | viability ([8]; 0.12 µM): 0.879 | viability ([8]; 0.6 µM): 0.577 | viability ([8]; 3 µM): 0.403 | viability ([8]; 15 µM): 0.228 | viability ([9]; 0.024 µM): 1.02 | viability ([9]; 0.12 µM): 1.01 | viability ([9]; 0.6 µM): 0.768 | viability ([9]; 3 µM): 0.538 | viability ([9]; 15 µM): 0.387 | viability ([10]; 0.024 µM): 1.02 | viability ([10]; 0.12 µM): 0.821 | viability ([10]; 0.6 µM): 0.575 | viability ([10]; 3 µM): 0.453 | viability ([10]; 15 µM): 0.254 | viability ([11]; 0.024 µM): 1.03 | viability ([11]; 0.12 µM): 1 | viability ([11]; 0.6 µM): 0.714 | viability ([11]; 3 µM): 0.402 | viability ([11]; 15 µM): 0.24 | viability ([12]; 0.024 µM): 0.919 | viability ([12]; 0.12 µM): 0.71 | viability ([12]; 0.6 µM): 0.403 | viability ([12]; 3 µM): 0.23 | viability ([12]; 15 µM): 0.212 | viability ([13]; 0.024 µM): 0.938 | viability ([13]; 0.12 µM): 0.665 | viability ([13]; 0.6 µM): 0.823 | viability ([13]; 3 µM): 0.673 | viability ([13]; 15 µM): 0.261 | viability ([14]; 0.024 µM): 1.07 | viability ([14]; 0.12 µM): 0.972 | viability ([14]; 0.6 µM): 0.801 | viability ([14]; 3 µM): 0.613 | viability ([14]; 15 µM): 0.327 | viability ([15]; 0.024 µM): 0.884 | viability ([15]; 0.12 µM): 0.798 | viability ([15]; 0.6 µM): 0.685 | viability ([15]; 3 µM): 0.546 | viability ([15]; 15 µM): 0.338 | viability ([16]; 0.024 µM): 1.01 | viability ([16]; 0.12 µM): 0.972 | viability ([16]; 0.6 µM): 0.844 | viability ([16]; 3 µM): 0.602 | viability ([16]; 15 µM): 0.457 | viability ([17]; 0.024 µM): 0.998 | viability ([17]; 0.12 µM): 0.952 | viability ([17]; 0.6 µM): 0.804 | viability ([17]; 3 µM): 0.688 | viability ([17]; 15 µM): 0.645 | viability ([18]; 0.024 µM): 1.02 | viability ([18]; 0.12 µM): 0.879 | viability ([18]; 0.6 µM): 0.681 | viability ([18]; 3 µM): 0.515 | viability ([18]; 15 µM): 0.388 | viability ([19]; 0.024 µM): 0.893 | viability ([19]; 0.12 µM): 0.699 | viability ([19]; 0.6 µM): 0.45 | viability ([19]; 3 µM): 0.25 | viability ([19]; 15 µM): 0.173 | viability ([20]; 0.024 µM): 1.03 | viability ([20]; 0.12 µM): 0.867 | viability ([20]; 0.6 µM): 0.495 | viability ([20]; 3 µM): 0.192 | viability ([20]; 15 µM): 0.064
